Data reported in the NIST ThermoML archive (doi:10.1021/je200710t).
Numbers after ± are expanded uncertainties.

What was measured:
[1] = for mass density / viscosity: 101.33 kPa, Liquid; for Glass transition temperature: DTA
[2] = refractive index (Na D-line) (dimensionless); conditions: 101.33 kPa, Liquid, Standard Abbe refractometry

Q: For `N#CCCn1cc[n+](CCO)c1.[Cl-]` [1-(2-cyanoethyl)-3-(2-hydroxyethyl)-1H-imidazolium chloride], which mass density ([1]; 293.15 K) is on record?
A: 1257.9 ± 3.6 kg/m3

Q: And the mass density ([1]; 298.15 K)?
A: 1255.05 ± 3.5 kg/m3

Q: And the mass density ([1]; 303.15 K)?
A: 1252.2 ± 3.5 kg/m3

Q: And the viscosity ([1]; 303.15 K)?
A: 62813 ± 12000 mPa·s

Q: What about the mass density ([1]; 308.15 K) of the same compound?
A: 1249.38 ± 3.5 kg/m3

Q: What about the viscosity ([1]; 308.15 K) of the same compound?
A: 33772 ± 5900 mPa·s

Q: What about the mass density ([1]; 313.15 K) of the same compound?
A: 1246.58 ± 3.5 kg/m3

Q: What about the viscosity ([1]; 313.15 K) of the same compound?
A: 19046 ± 3100 mPa·s

Q: And the mass density ([1]; 318.15 K)?
A: 1243.81 ± 3.4 kg/m3

Q: What about the viscosity ([1]; 318.15 K) of the same compound?
A: 11119 ± 1600 mPa·s

Q: What about the mass density ([1]; 323.15 K) of the same compound?
A: 1241.05 ± 3.4 kg/m3

Q: And the viscosity ([1]; 323.15 K)?
A: 6721 ± 890 mPa·s

Q: And the mass density ([1]; 328.15 K)?
A: 1238.32 ± 3.4 kg/m3

Q: And the viscosity ([1]; 328.15 K)?
A: 4213 ± 500 mPa·s

Q: What about the mass density ([1]; 333.15 K) of the same compound?
A: 1235.59 ± 3.4 kg/m3

Q: And the viscosity ([1]; 333.15 K)?
A: 2708 ± 290 mPa·s

Q: What about the mass density ([1]; 338.15 K) of the same compound?
A: 1232.86 ± 3.3 kg/m3

Q: And the viscosity ([1]; 338.15 K)?
A: 1817 ± 180 mPa·s

Q: And the mass density ([1]; 343.15 K)?
A: 1230.13 ± 3.3 kg/m3

Q: And the viscosity ([1]; 343.15 K)?
A: 1245 ± 110 mPa·s

Q: What about the mass density ([1]; 348.15 K) of the same compound?
A: 1227.41 ± 3.3 kg/m3

Q: And the viscosity ([1]; 348.15 K)?
A: 873 ± 68 mPa·s

Q: What about the mass density ([1]; 353.15 K) of the same compound?
A: 1224.57 ± 3.3 kg/m3

Q: And the viscosity ([1]; 353.15 K)?
A: 632 ± 44 mPa·s

Q: And the Glass transition temperature [1]?
A: 14.50 ± 4 °C

Q: What about the refractive index ([2]; 293.15 K) of the same compound?
A: 1.54996 ± 0.00052

Q: What about the refractive index ([2]; 298.15 K) of the same compound?
A: 1.54847 ± 0.00052

Q: What about the refractive index ([2]; 303.15 K) of the same compound?
A: 1.54699 ± 0.00052

Q: What about the refractive index ([2]; 308.15 K) of the same compound?
A: 1.54554 ± 0.00052

Q: What about the refractive index ([2]; 313.15 K) of the same compound?
A: 1.54412 ± 0.00052

Q: What about the refractive index ([2]; 318.15 K) of the same compound?
A: 1.54277 ± 0.00052

Q: And the refractive index ([2]; 323.15 K)?
A: 1.54133 ± 0.00052

Q: What about the refractive index ([2]; 328.15 K) of the same compound?
A: 1.53985 ± 0.00052

Q: And the refractive index ([2]; 333.15 K)?
A: 1.53847 ± 0.00052

Q: For `CCCC[n+]1ccn(CCC#N)c1.[Cl-]` [3-butyl-1-(2-cyanoethyl)-1H-imidazol-3-ium chloride], which mass density ([1]; 293.15 K) is on record?
A: 1132.55 ± 3.3 kg/m3

Q: And the viscosity ([1]; 293.15 K)?
A: 4707 ± 580 mPa·s

Q: What about the mass density ([1]; 298.15 K) of the same compound?
A: 1129.35 ± 3.2 kg/m3

Q: And the viscosity ([1]; 298.15 K)?
A: 2637 ± 280 mPa·s

Q: And the mass density ([1]; 303.15 K)?
A: 1126.15 ± 3.2 kg/m3

Q: What about the viscosity ([1]; 303.15 K) of the same compound?
A: 1612 ± 150 mPa·s

Q: What about the mass density ([1]; 308.15 K) of the same compound?
A: 1122.93 ± 3.2 kg/m3

Q: What about the viscosity ([1]; 308.15 K) of the same compound?
A: 1020 ± 84 mPa·s

Q: And the mass density ([1]; 313.15 K)?
A: 1119.66 ± 3.1 kg/m3

Q: And the viscosity ([1]; 313.15 K)?
A: 668 ± 48 mPa·s

Q: And the mass density ([1]; 318.15 K)?
A: 1116.49 ± 3.1 kg/m3

Q: And the viscosity ([1]; 318.15 K)?
A: 451 ± 27 mPa·s

Q: What about the mass density ([1]; 323.15 K) of the same compound?
A: 1113.34 ± 3.1 kg/m3

Q: What about the viscosity ([1]; 323.15 K) of the same compound?
A: 314 ± 16 mPa·s

Q: What about the mass density ([1]; 328.15 K) of the same compound?
A: 1110.18 ± 3 kg/m3

Q: What about the viscosity ([1]; 328.15 K) of the same compound?
A: 224 ± 10 mPa·s

Q: And the mass density ([1]; 333.15 K)?
A: 1107.03 ± 3 kg/m3

Q: What about the viscosity ([1]; 333.15 K) of the same compound?
A: 164 ± 6 mPa·s

Q: And the mass density ([1]; 338.15 K)?
A: 1103.87 ± 3 kg/m3

Q: What about the viscosity ([1]; 338.15 K) of the same compound?
A: 123 ± 3 mPa·s

Q: What about the mass density ([1]; 343.15 K) of the same compound?
A: 1100.72 ± 2.9 kg/m3

Q: What about the viscosity ([1]; 343.15 K) of the same compound?
A: 94 ± 2 mPa·s

Q: And the mass density ([1]; 348.15 K)?
A: 1097.57 ± 2.9 kg/m3

Q: What about the viscosity ([1]; 348.15 K) of the same compound?
A: 73 ± 1 mPa·s

Q: And the mass density ([1]; 353.15 K)?
A: 1094.44 ± 2.9 kg/m3

Q: What about the viscosity ([1]; 353.15 K) of the same compound?
A: 58 ± 1 mPa·s

Q: And the Glass transition temperature [1]?
A: -5.23 ± 4 °C

Q: What about the refractive index ([2]; 293.15 K) of the same compound?
A: 1.52575 ± 0.00062

Q: What about the refractive index ([2]; 298.15 K) of the same compound?
A: 1.5243 ± 0.00062

Q: What about the refractive index ([2]; 303.15 K) of the same compound?
A: 1.52287 ± 0.00062

Q: What about the refractive index ([2]; 308.15 K) of the same compound?
A: 1.52139 ± 0.00062

Q: What about the refractive index ([2]; 313.15 K) of the same compound?
A: 1.51992 ± 0.00062

Q: And the refractive index ([2]; 318.15 K)?
A: 1.51846 ± 0.00062

Q: And the refractive index ([2]; 323.15 K)?
A: 1.51707 ± 0.00062

Q: What about the refractive index ([2]; 328.15 K) of the same compound?
A: 1.5156 ± 0.00062

Q: What about the refractive index ([2]; 333.15 K) of the same compound?
A: 1.51418 ± 0.00062

Q: What does the source list for `C=CC[n+]1ccn(CCC#N)c1.[Cl-]` [3-allyl-1-(2-cyanoethyl)-1H-imidazolium chloride]?
A: mass density ([1]; 293.15 K): 1173.79 ± 2.2 kg/m3; mass density ([1]; 298.15 K): 1170.79 ± 2.2 kg/m3; viscosity ([1]; 298.15 K): 17544 ± 2800 mPa·s; mass density ([1]; 303.15 K): 1167.79 ± 2.2 kg/m3; viscosity ([1]; 303.15 K): 10294 ± 1500 mPa·s; mass density ([1]; 308.15 K): 1164.8 ± 2.2 kg/m3; viscosity ([1]; 308.15 K): 5761 ± 740 mPa·s; mass density ([1]; 313.15 K): 1161.84 ± 2.1 kg/m3; viscosity ([1]; 313.15 K): 3316 ± 380 mPa·s; mass density ([1]; 318.15 K): 1158.88 ± 2.1 kg/m3; viscosity ([1]; 318.15 K): 2046 ± 200 mPa·s; mass density ([1]; 323.15 K): 1155.93 ± 2.1 kg/m3; viscosity ([1]; 323.15 K): 1314 ± 120 mPa·s; mass density ([1]; 328.15 K): 1152.91 ± 2.1 kg/m3; viscosity ([1]; 328.15 K): 873 ± 68 mPa·s; mass density ([1]; 333.15 K): 1150.01 ± 2.1 kg/m3; viscosity ([1]; 333.15 K): 599 ± 40 mPa·s; mass density ([1]; 338.15 K): 1147.11 ± 2 kg/m3; viscosity ([1]; 338.15 K): 423 ± 25 mPa·s; mass density ([1]; 343.15 K): 1144.22 ± 2 kg/m3; viscosity ([1]; 343.15 K): 306 ± 15 mPa·s; mass density ([1]; 348.15 K): 1141.32 ± 2 kg/m3; viscosity ([1]; 348.15 K): 226 ± 9 mPa·s; mass density ([1]; 353.15 K): 1138.42 ± 2 kg/m3; viscosity ([1]; 353.15 K): 171 ± 6 mPa·s; Glass transition temperature [1]: -1.48 ± 4 °C; refractive index ([2]; 293.15 K): 1.54731 ± 0.00043; refractive index ([2]; 298.15 K): 1.54603 ± 0.00043; refractive index ([2]; 303.15 K): 1.54478 ± 0.00043; refractive index ([2]; 308.15 K): 1.54339 ± 0.00043; refractive index ([2]; 313.15 K): 1.54208 ± 0.00043; refractive index ([2]; 318.15 K): 1.54072 ± 0.00043; refractive index ([2]; 323.15 K): 1.53945 ± 0.00043; refractive index ([2]; 328.15 K): 1.53813 ± 0.00043; refractive index ([2]; 333.15 K): 1.53682 ± 0.00043

Q: With `N#CCCn1cc[n+](Cc2ccccc2)c1.[Cl-]` [1-(2-cyanoethyl)-3-(phenylmethyl)-1H-imidazolium chloride] as the compound, how does the mass density ([1]; 298.15 K) read?
A: 1202.67 ± 2.5 kg/m3

Q: And the mass density ([1]; 303.15 K)?
A: 1200.28 ± 2.5 kg/m3

Q: And the mass density ([1]; 308.15 K)?
A: 1197.33 ± 2.5 kg/m3

Q: And the mass density ([1]; 313.15 K)?
A: 1194.37 ± 2.5 kg/m3

Q: And the mass density ([1]; 318.15 K)?
A: 1191.42 ± 2.4 kg/m3

Q: And the mass density ([1]; 323.15 K)?
A: 1188.5 ± 2.4 kg/m3

Q: What about the viscosity ([1]; 323.15 K) of the same compound?
A: 95152 ± 19000 mPa·s

Q: And the mass density ([1]; 328.15 K)?
A: 1185.59 ± 2.4 kg/m3

Q: What about the viscosity ([1]; 328.15 K) of the same compound?
A: 42665 ± 7800 mPa·s

Q: And the mass density ([1]; 333.15 K)?
A: 1182.69 ± 2.4 kg/m3

Q: And the viscosity ([1]; 333.15 K)?
A: 20463 ± 3300 mPa·s

Q: What about the mass density ([1]; 338.15 K) of the same compound?
A: 1179.8 ± 2.4 kg/m3

Q: What about the viscosity ([1]; 338.15 K) of the same compound?
A: 10434 ± 1500 mPa·s

Q: And the mass density ([1]; 343.15 K)?
A: 1176.88 ± 2.3 kg/m3

Q: What about the viscosity ([1]; 343.15 K) of the same compound?
A: 5635 ± 720 mPa·s

Q: What about the mass density ([1]; 348.15 K) of the same compound?
A: 1174.01 ± 2.3 kg/m3

Q: What about the viscosity ([1]; 348.15 K) of the same compound?
A: 3190 ± 360 mPa·s

Q: And the mass density ([1]; 353.15 K)?
A: 1171.16 ± 2.3 kg/m3

Q: And the viscosity ([1]; 353.15 K)?
A: 1958 ± 190 mPa·s

Q: And the Glass transition temperature [1]?
A: 16.21 ± 4 °C
